From patent publication US6608032B1, “Medicinal compositions” (Takara Shuzo Co., Ltd., priority 1999, dated 2003)
pIC50: −log10 of the molar value.

How the values were obtained:
cyclooxygenase 2 protein = assay: LPS-induced cyclooxygenase 2 protein expression in RAW264.7 cells (Western blot); format: cell-based; conditions: 50 μl of 10 mM solution per 5 ml, added 0 or 6 hours before LPS
Experimental: (1) RAW264.7 cells (ATCC TIB 71) were suspended in Dulbecco's modified Eagle's medium (Bio Whittaker, 12-604F) containing 10% fetal calf serum (Gibco) at a concentration of 3×10^5 cells/ml. 5 ml of the suspension was added to each well of a 6-well microtiter plate and the plate was incubated at 37° C. overnight in the presence of 5% CO2. 50 μl of a solution containing agarobiose or agarohexaose at a concentration of 10 mM in water was added to the well. The plate was incubated for 0 or 6 hours. 50 μl of a solution containing lipopolysaccharide (LPS, Sigma, L-2012) at a concentration of 100 μg/ml in water was added to the well. The plate was incubated for additional 12 hours. The cells were recovered by detaching the cells from the plate using a scraper and suspended in phosphate buffered saline containing 1 μg/ml pepstatin A (Sigma, P5318), 1 μg/ml leupeptin (Sigma, L2884), 1 mM phenylmethylsulfonyl fluoride (Nacalai Tesque, 273-27), 10 mM ethylenediaminetetraacetic acid disodium salt and 0.1% Triton X-100. A supernatant obtained by centrifuging the suspension after freezing and thawing was used as a protein fraction. The content of protein in the protein fraction was determined using Micro BCA Protein Assay Reagent (a product of Pierce sold by Takara Shuzo, P7411). […]

human FGF-β = assay: FGF-β production from DSEK cells (ELISA); format: cell-based; conditions: DSEK culture supernatant
Experimental: (§1) 150 μl of a culture supernatant was collected from a well containing a culture of DSEK cells over time at intervals of 24 hours. The effects of agarobiose on the production (expression) of cytokines (human TGF-β, human FGF-β and human IL-10) from the cell were determined using ELISA kits specific for the respective cytokines (from Intergen for human FGF-β and human IL-10; and from Promega for human TGF-β).

DSEK cells = assay: Growth of DSEK cells (in vitro rheumatoid model), WST-1; format: cell-based, human
Experimental: DSEK cell is a fibroblast cell line established from a synovial membrane of a human patient with chronic rheumatism and is held at Department of Second Internal Medicine, Integrated Medical Center, Saitama Collage of Medicine as an in vitro rheumatoid model. DSEK cells were cultured in Iscov-MEM medium (IMDM: Gibco-BRL) containing 10% FBS (Bio Whittaker) at 37° C. in the presence of 5% CO2 to saturation of culture vessel. The cells were suspended in the same medium at a concentration of 3×10^4 cells/ml using a trypsin-EDTA solution (Bio Whittaker). 200 μl of the suspension was dispensed into each well of a 96-well microtiter plate (Falcon). […]
10 μl of Premix WST-1 (Takara Shuzo, MK400) was added to one of the wells at intervals of 24 hours up to 72 hours after the medium change. The mixture was reacted at 37° C. for 3.5 hours. The degree of cell growth was expressed by a value obtained by subtracting the absorbance at 650 nm (A650) from the absorbance at 450 nm (A450).

human IL-10 = assay: IL-10 production from DSEK cells (ELISA); format: cell-based; conditions: DSEK culture supernatant
Experimental: as §1

human TGF-β = assay: TGF-β production from DSEK cells (ELISA); format: cell-based; conditions: DSEK culture supernatant
Experimental: as §1

| SMILES | increase in cyclooxygenase 2 protein expression induced by LPS (cyclooxygenase 2 protein) | production of human FGF-β (human FGF-β) | Degree of cell growth (A450-650) (DSEK cells; 50 μM, 24 hr) | Degree of cell growth (A450-650) (DSEK cells; 50 μM, 48 hr) | Degree of cell growth (A450-650) (DSEK cells; 50 μM, 72 hr) | Degree of cell growth (A450-650) (DSEK cells; 100 μM, 24 hr) | Degree of cell growth (A450-650) (DSEK cells; 100 μM, 48 hr) | Degree of cell growth (A450-650) (DSEK cells; 100 μM, 72 hr) | Degree of cell growth (A450-650) (DSEK cells; 200 μM, 24 hr) | Degree of cell growth (A450-650) (DSEK cells; 200 μM, 48 hr) | Degree of cell growth (A450-650) (DSEK cells; 200 μM, 72 hr) | Degree of cell growth (A450-650) (DSEK cells; 400 μM, 24 hr) | Degree of cell growth (A450-650) (DSEK cells; 400 μM, 48 hr) | Degree of cell growth (A450-650) (DSEK cells; 400 μM, 72 hr) | Degree of cell growth (A450-650) (DSEK cells; 800 μM, 24 hr) | Degree of cell growth (A450-650) (DSEK cells; 800 μM, 48 hr) | Degree of cell growth (A450-650) (DSEK cells; 800 μM, 72 hr) | pIC50 (DSEK cells; 72 hours, read-out: concentration that resulted in the inhibition of the growth of half cells (IC50)) | production of human IL-10 (human IL-10) | production of human TGF-β (human TGF-β) |
| --- | --- | --- | --- | --- | --- | --- | --- | --- | --- | --- | --- | --- | --- | --- | --- | --- | --- | --- | --- | --- |
| OCC1OC(OC2C3COC2C(O)C(OC2C(O)C(CO)OC(OC4C5COC4C(O)C(OC4C(O)C(CO)OC(OC6C7COC6C(O)C(O)O7)C4O)O5)C2O)O3)C(O)C(O)C1O (stereo not drawn) [Agarohexaose, agarohexaose] | not suppressed | – | – | – | – | – | – | – | – | – | – | – | – | – | – | – | – | – | – | – |
| OC[C@H]1O[C@@H](O[C@H]2[C@H]3OC[C@@H]2OC(O)[C@H]3O)[C@H](O)[C@@H](O)[C@H]1O (mixture of isomers) [Agarobiose, agarobiose] | not suppressed | activities of inhibiting the production | 1.00 | 1.49 | 1.27 | 0.88 | 1.87 | 1.26 | 0.89 | 1.50 | 0.93 | 0.87 | 0.52 | 0.47 | 0.54 | 0.45 | 0.56 | 3.77 | activities of inhibiting the production | activities of inhibiting the production |
